Where two headings read alike, the source gives them in different places.
What was measured:
MCF-7 = experiment: MTT cell viability assay, MCF-7; format: cell-based; conditions: for EC50: Table 2; for IC50: read-out: IC50/μM MCF-7
Solubility = format: physicochemical
Microsomal stability = format: in vitro ADME
[1] = Tolerability in mice based on weight; format: in vivo; conditions: daily i.p. 5 mg/kg/day, male CD1 mice
Method: Analogs were delivered daily to male CD1 mice by i.p. at 5 mg/kg/day. Five mice per group. Error bars represent SEM.

[2] = test system: Hsp70 clients in MCF7 cells; experiment: Western blot of Hsp70 clients in MCF7 cells; format: cell-based; conditions: 24 hrs
Method: Cells were treated for 24 hrs with compound, lysed and Western blots performed.

MDA-MB-231 = experiment: MTT cell viability assay, MDA-MB-231; format: cell-based; conditions: Homo sapiens, MDA-MB-231, 72-hour incubation
MEF (C57BL/6) = experiment: MTT cell viability assay, MEF (C57BL/6); format: cell-based; conditions: for IC50 / EC50: Mus musculus; for EC50: Table 2; for SI MEF/MCF-7: ratio of EC50 MEF to EC50 MCF-7
IMR-90 = experiment: Cell viability, IMR-90; format: cell-based; conditions: for EC50: Homo sapiens, IMR-90, Table 2; for SI IMR-90/MCF-7: ratio of EC50 IMR-90 to EC50 MCF-7
Method: Cells were then treated with compound at various concentrations in 0.2 mL media. After the 72-hour incubation period, cells were washed in PBS (3×100 μL), and 10 μL MTT reagent was added with 100 μL fresh media. Cells were then incubated for 4 hr in a humidified chamber at 37° C. with 5% CO2. Insoluble formazan crystals were solubilized by addition of 0.1 mL detergent solution (4 hr at room temp., dark). Resulting colored solutions were then quantified at an absorbance of 570 nm.

[3] = Pharmacokinetics in CD1 mice, single i.p. injection, plasma by HPLC; format: in vivo
Method: A single injection of compound was delivered to CD1 mice by i.p. and the plasma collected at the indicated times. Compound levels were calculated by HPLC, using a standard curve.

[4] = test system: multiple myeloma cell lines; experiment: MTT cell viability in multiple myeloma cell lines; format: cell-based; conditions: cell viability after 48 hrs, percentage of solvent control (1% DMSO)
Excerpt: Results are shown as a percentage of a solvent control (1% DMSO). Results are the average of experiments performed in triplicate. Error bars represent SEM.

Xenografts of MCF7 cells = experiment: Hsp70 client destabilization in MCF7 xenografts, western blot; format: in vivo; conditions: 5 mg/kg/day for three days, western blot of tumors
Method: Xenografts of MCF7 cells were treated by delivery of compound in saline 5 mg/kg/day dosed for three days, after which tumors were harvested for western blot. Results from three separate animals are shown.

[5] = 72 h, read-out: IC50/μM MEF (C57BL/6), MTT, 72-hour incubation
[6] = Homo sapiens, MCF7, MTT, 72-hour incubation
[7] = MTT, 72-hour incubation, read-out: IC50/μM MEF (C57BL/6)

| Compound | solubility (Solubility) | Microsomal min (Microsomal stability) | tolerated in mice, based on weight [1] | EC50 (MCF-7; Homo sapiens, MCF7) | IC50 (MDA-MB-231) | EC50 (MEF (C57BL/6)) | EC50 (IMR-90) | IC50 (MCF-7; [6]) | IC50 (MEF (C57BL/6); [7]) | SI MEF/MCF-7 (MEF (C57BL/6)) | SI IMR-90/MCF-7 (IMR-90) | further results |
| --- | --- | --- | --- | --- | --- | --- | --- | --- | --- | --- | --- | --- |
| CCn1c(=O)/c(=C2\Sc3cc(Cl)ccc3N2C)s/c1=C\c1scc[n+]1Cc1ccc(Br)s1.[Cl-] [JG-231, reference compound] | 16 µM | >60 min | tolerated in mice | – | – | – | – | – | – | – | – | EC50 (MCF-7): 0.12 ± 0.01 µM; destabilization of Hsp70 clients (c-Raf and other clients) [2]: destabilize c-Raf and other clients |
| CCc1ccc2c(c1)S/C(=c1/s/c(=C\c3scc[n+]3Cc3ccc(C(F)(F)F)o3)n(CC)c1=O)N2C.[Cl-] [JG-300] | – | 37 min | – | 0.11 ± 0.01 µM | 0.1 ± 0.01 µM | 1.4 ± 0.1 µM | 3.3 ± 0.3 µM | – | – | – | – | IC50 (MCF-7; Homo sapiens, MCF7, 72 h, MTT, 72-hour incubation): 0.11 ± 0.01 µM; IC50 (MEF (C57BL/6); [5]): 1.4 ± 0.06 µM |
| CCn1c(=O)/c(=C2\Sc3cc(Br)ccc3N2C)s/c1=C\c1scc[n+]1Cc1ccc(C(F)(F)F)o1.[Cl-] [JG-294] | – | >60 min | tolerated in mice | 0.1 ± 0.01 µM | 0.18 ± 0.01 µM | 3.5 ± 0.4 µM | 9.8 ± 2 µM | – | – | – | – | IC50 (MCF-7; Homo sapiens, MCF7, 72 h): 0.1 ± 0.01 µM; IC50 (MEF (C57BL/6); [5]): 3.5 ± 0.4 µM; AUC0-∞/nM × h [3]: 2.429 µM·h; Tmax ([3]; mouse, ip): 2 h; half-life ([3]; mouse, ip, read-out: t1/2/h (converted)): 29.8 h |
| CCn1c(=O)/c(=C2\Sc3cc(Cl)ccc3N2C)s/c1=C\c1scc[n+]1Cc1ccccc1.[Cl-] [JG-98, reference compound] | 31 µM | 37 min | – | – | – | – | – | – | – | – | – | EC50 (MCF-7): 0.71 ± 0.22 µM |
| CCn1c(=O)/c(=C2\Sc3cc(SC)ccc3N2C)s/c1=C\c1scc[n+]1Cc1ccccc1C(F)(F)F.[Cl-] [JG-312] | 16 µM | 23 min | – | 0.1 ± 0.01 µM | 0.14 ± 0.01 µM | 3.2 ± 0.2 µM | > 10 µM | 0.1 ± 0.01 µM | 3.2 ± 0.2 µM | 32 | >100 | – |
| CCc1ccc2c(c1)S/C(=c1/s/c(=C\c3scc[n+]3Cc3ccccc3C(=O)OC)n(CC)c1=O)N2C.[Cl-] [JG-345] | – | 25 min | tolerated in mice | 0.049 ± 0.003 µM | 0.046 ± 0.006 µM | 1 ± 0.1 µM | 3.2 ± 0.7 µM | – | 1 ± 0.1 µM | – | – | IC50 (MCF-7; Homo sapiens, MCF7, 72 h): 0.049 ± 0.003 µM; t1/2/h [3]: 11.4 h; anti-proliferative activity against multiple myeloma cell lines [4]: anti-proliferative activity; destabilization of Hsp70 clients (c-Raf and other clients) [2]: destabilize c-Raf and other clients; destabilization of Hsp70 clients in vivo (Xenografts of MCF7 cells): destabilized Hsp70 clients in vivo |
| CCn1c(=O)/c(=C2\Sc3cc(SC)ccc3N2C)s/c1=C\c1scc[n+]1Cc1ccccc1OC(F)(F)F.[Cl-] [JG-311] | 16 µM | 22 min | – | 0.098 ± 0.009 µM | 0.14 ± 0.01 µM | 2 ± 0.1 µM | 3.5 ± 0.6 µM | 0.098 ± 0.009 µM | 2 ± 0.1 µM | 20 | 35 | – |
| CCn1c(=O)/c(=C2\Sc3cc(SC)ccc3N2C)s/c1=C\c1scc[n+]1Cc1ccccc1SC(F)(F)F.[Cl-] [JG-356] | 16 µM | 23 min | – | 0.089 ± 0.006 µM | 0.09 ± 0.005 µM | 1.9 ± 0.1 µM | 1.5 ± 0.1 µM | 0.089 ± 0.006 µM | 1.9 ± 0.1 µM | 21 | 16 | – |

Reference: patent US10221171B2, “Oxathiazole thiazolium Hsp 70 inhibitors” (THE REGENTS OF THE UNIVERSITY OF CALIFORNIA, priority 2015, dated 2019)
